The assay relates to mouse leukemia P388 cells. Put plainly: Assay of antitumor activity: increase in life span of mice implanted with P388 leukemia. As to conditions: CDF1 mice, P388 cells 10^6 cells/mouse i.p.; compound i.p. on first and fifth day after implantation; observed for 60 days; ILS from median survival days. The format is in vivo. On the procedure:
(1) Assay of antitumor activity
0.1 ml (10^6 cells/mouse) portions of mouse leukemia P388 cells were implanted intraperitoneally into 7-week-old CDF1 mice. […] From the results were calculated increases in life span (ILS, %) according to the following equation. In the following equation, T means median survival days of the chemical administration group, and C means median survival days of the control group. [formula]
Antitumor activity is shown as the relative ratio in the case where the ILS of dolastatin 10 is supposed to be 100.

For the substance dolastatin 10, the “Antitumor activity (relative ratio of ILS, ILS of dolastatin 10 supposed to be 100)” value was 100.

For the origin of these results see patent US5767237A, “Peptide derivatives” (Teikoku Hormone Mfg. Co., Ltd., priority 1993, dated 1998).
